System: ApoA-I mRNA
Test: Quantification of ApoA-I mRNA in HepG2 cells (real-time PCR)
Assay type: cell-based
Design: key: Active: An active compound was defined as one that caused a ≧20% increase in ApoA-I mRNA at a concentration less than or equal to 100 μM
Settings: fold induction relative to DMSO control, concentration less than or equal to 100 μM
Method: In this example, ApoA-I mRNA in tissue culture cells was quantitated to measure the transcriptional up-regulation of ApoA-I when treated with a compound of the invention.
HepG2 cells (approximately 2×10^5 per well) were placed in a 24-well plate in approximately 400 μL MEM, supplemented with 0.5% (v/v) FBS, 24 h before addition of the compound of interest. At time of harvesting, the spent media was removed from the HepG2 cells and immediately placed on ice (for immediate use) or at −80° C. (for future use) in ApoA-I and albumin ELISAs. The cells remaining in the plate wells were rinsed in 200 μL PBS. PBS was carefully removed to avoid removing any loosely attached cells.
Once the PBS was removed, 85 μL cell lysis solution was added the cells in each well and incubated for 5-10 minutes at room temperature, to allow for complete cell lysis and detachment. mRNA was then prepared using the “mRNA Catcher PLUS plate” from Invitrogen, according to the protocol supplied. After the last wash, as much wash buffer as possible was aspirated without allowing the wells to dry. Elution Buffer (E3, 80 μL) was then added to each well. mRNA was then eluted by incubating the mRNA Catcher PLUS plate with Elution Buffer for 5 minutes at 68° C. and then immediately placing the plate on ice.
The eluted mRNA isolated was then used in a one-step real-time […] reaction, using components of the Ultra Sense Kit together with Applied Biosystems primer-probe mixes. Real-time PCR data was analyzed, using the Ct values, to determine the fold induction of each unknown sample, relative to the control (that is, relative to the control for each independent DMSO concentration).
An active compound was defined as one that caused a ≧20% increase in ApoA-I mRNA at a concentration less than or equal to 100 μM.

Structure (SMILES) | Effect on ApoA-I mRNA levels
CCC(C)c1ccc(-n2c(-c3ccc4[nH]ncc4c3)nc3ccccc3c2=O)cc1 (stereo not drawn) [Example 72, 3-(4-sec-butylphenyl)-2-(1H-indazol-5-yl)quinazolin-4(3H)-one] | Active
O=c1c2ccccc2nc(-c2cccc3[nH]ccc23)n1-c1ccc(Cl)cc1 [Example 89, 3-(4-chlorophenyl)-2-(1H-indol-4-yl)quinazolin-4(3H)-one] | Active
Cc1ccc(-c2nc3ccccc3c(=O)n2-c2ccc(Cl)cc2)cn1 [Example 47, 3-(4-chlorophenyl)-2-(6-methylpyridin-3-yl)quinazolin-4(3H)-one] | Active
CCN(CC)c1ccc(-c2nc3ccccc3c(=O)n2-c2ccc(Cl)cc2)cn1 [Example 43, 3-(4-chlorophenyl)-2-(6-(diethylamino)pyridin-3-yl)quinazolin-4(3H)-one] | Active
Cc1ccc(-c2nc3ccccc3c(=O)n2-c2ccc(N(C)C)cc2)cn1 [Example 69, 3-(4-(dimethylamino)phenyl)-2-(6-methylpyridin-3-yl)quinazolin-4(3H)-one] | Active
Cc1ccc(-c2nc3ccccc3c(=O)n2-c2ccc(C3CCCC3)cc2)cn1 [Example 62, 3-(4-cyclopentylphenyl)-2-(6-methylpyridin-3-yl)quinazolin-4(3H)-one] | Active
Cc1ccc(-c2nc3ccccc3c(=O)n2-c2ccc(NS(C)(=O)=O)cc2)cn1 [Example 66, N-(4-(2-(6-methylpyridin-3-yl)-4-oxoquinazolin-3(4H)-yl)phenyl)methanesulfonamide] | Active
O=c1c2ccccc2nc(-c2ccc(Cl)nc2)n1-c1ccc(Cl)cc1 [Example 38, 3-(4-chlorophenyl)-2-(6-chloropyridin-3-yl)quinazolin-4(3H)-one] | Active
COc1ccc(S(=O)(=O)n2ccc3cc(-c4nc5ccccc5c(=O)n4-c4ccc(Cl)cc4)cnc32)cc1 [Example 78, 3-(4-chlorophenyl)-2-(1-(4-methoxyphenylsulfonyl)-1H-pyrrolo[2,3-b]pyridin-5-yl)quinazolin-4(3H)-one] | Active
Cc1cc(-c2nc3ccccc3c(=O)n2-c2ccc(Cl)cc2)ccc1OCCO [Example 34, 3-(4-chlorophenyl)-2-(4-(2-hydroxyethoxy)-3-methylphenyl)quinazolin-4(3H)-one] | Active
Cc1ccc(-c2nc3ccccc3c(=O)n2-c2ccc(C(C)C)cc2)cn1 [Example 65, 3-(4-isopropylphenyl)-2-(6-methylpyridin-3-yl)quinazolin-4(3H)-one] | Active
CCC(C)c1ccc(-n2c(-c3ccc4nc(CO)[nH]c4c3)nc3ccccc3c2=O)cc1 (stereo not drawn) [Example 75, 3-(4-sec-butylphenyl)-2-(2-(hydroxymethyl)-1H-benzo[d]imidazol-6-yl)quinazolin-4(3H)-one] | Active
O=c1c2ccccc2nc(-c2cncc(Br)c2)n1-c1ccc(Cl)cc1 [Example 58, 2-(5-bromopyridin-3-yl)-3-(4-chlorophenyl)quinazolin-4(3H)-one] | Active
CSc1ccc(-n2c(-c3ccc(C)nc3)nc3ccccc3c2=O)cc1 [Example 64, 2-(6-methylpyridin-3-yl)-3-(4-(methylthio)phenyl)quinazolin-4(3H)-one] | Active
Cc1cc(-c2nc3ccccc3c(=O)n2-c2ccc(C(F)(F)F)cc2)cc(C)c1OCCO [Example 11, 2-(4-(2-hydroxyethoxy)-3,5-dimethylphenyl)-3-(4-(trifluoromethyl)phenyl)quinazolin-4(3H)-one] | Active
CCC(C)c1ccc(-n2c(-c3cccc4cc[nH]c34)nc3ccccc3c2=O)cc1 (stereo not drawn) [Example 88, 3-(4-sec-butylphenyl)-2-(1H-indol-7-yl)quinazolin-4(3H)-one] | Active
CC(=O)Nc1ccc(-n2c(-c3cc(C)c(OCCO)c(C)c3)nc3ccccc3c2=O)cc1 [Example 23, N-(4-(2-(4-(2-hydroxyethoxy)-3,5-dimethylphenyl)-4-oxoquinazolin-3(4H)-yl)phenyl)acetamide] | Active
CCC(C)c1ccc(-n2c(-c3ccc(CO)nc3)nc3ccccc3c2=O)cc1 (stereo not drawn) [Example 63, 3-(4-sec-butylphenyl)-2-(6-(hydroxymethyl)pyridin-3-yl)quinazolin-4(3H)-one] | Active

Structure (SMILES) | Effect on ApoA-I mRNA levels
CCC(C)c1ccc(-n2c(-c3cccnc3)nc3ccccc3c2=O)cc1 (stereo not drawn) [Example 35, 3-(4-sec-butylphenyl)-2-(pyridin-3-yl)quinazolin-4(3H)-one] | Active
CCC(C)c1ccc(-n2c(-c3cncc(Br)c3)nc3ccccc3c2=O)cc1 (stereo not drawn) [Example 57, 2-(5-bromopyridin-3-yl)-3-(4-sec-butylphenyl)quinazolin-4(3H)-one] | Active
Cc1cc(-c2nc3ccccc3c(=O)n2-c2ccc(NC=O)cc2)cc(C)c1OCCO [Example 27, N-(4-(2-(4-(2-hydroxyethoxy)-3,5-dimethylphenyl)-4-oxoquinazolin-3(4H)-yl)phenyl)formamide] | Active
Cc1cc(-c2nc3ccccc3c(=O)n2-c2ccc(C(C)(C)C)cc2)cc(C)c1OCCO [Example 22, 3-(4-tert-butylphenyl)-2-(4-(2-hydroxyethoxy)-3,5-dimethylphenyl)quinazolin-4(3H)-one] | Active
CCC(C)c1ccc(-n2c(-c3ccc(OC)nc3)nc3ccccc3c2=O)cc1 (stereo not drawn) [Example 40, 3-(4-sec-butylphenyl)-2-(6-methoxypyridin-3-yl)quinazolin-4(3H)-one] | Active
CCC(C)c1ccc(-n2c(-c3ccc4cc[nH]c4c3)nc3ccccc3c2=O)cc1 (stereo not drawn) [Example 87, 3-(4-sec-butylphenyl)-2-(1H-indol-6-yl)quinazolin-4(3H)-one] | Active
O=c1c2ccccc2nc(-c2cnc3c(ccn3S(=O)(=O)c3ccccc3)c2)n1-c1ccc(Cl)cc1 [Example 81, 3-(4-chlorophenyl)-2-(1-(phenylsulfonyl)-1H-pyrrolo[2,3-b]pyridin-5-yl)quinazolin-4(3H)-one] | Active
CC(C)c1ccc(-n2c(-c3ccc4[nH]ccc4c3)nc3ccccc3c2=O)cc1 [Example 77, 2-(1H-indol-5-yl)-3-(4-isopropylphenyl)quinazolin-4(3H)-one] | Active
CCC(C)c1ccc(-n2c(-c3ccc(-c4ccccc4)nc3)nc3ccccc3c2=O)cc1 (stereo not drawn) [Example 55, 3-(4-sec-butylphenyl)-2-(6-phenylpyridin-3-yl)quinazolin-4(3H)-one] | Active
O=c1c2ccccc2nc(-c2cnc3c(ccn3S(=O)(=O)c3ccc(F)cc3)c2)n1-c1ccc(Cl)cc1 [Example 79, 3-(4-chlorophenyl)-2-(1-(4-fluorophenylsulfonyl)-1H-pyrrolo[2,3-b]pyridin-5-yl)quinazolin-4(3H)-one] | Active
CCC(C)c1ccc(-n2c(-c3cc(C)c(OCCO)c(C)c3)nc3ccc(F)cc3c2=O)cc1 (stereo not drawn) [Example 9, 3-(4-sec-butylphenyl)-6-fluoro-2-(4-(2-hydroxyethoxy)-3,5-dimethylphenyl)quinazolin-4(3H)-one] | Active
CCC(C)c1ccc(-n2c(-c3ccc(C)nc3)nc3ccccc3c2=O)cc1 (stereo not drawn) [Example 46, 3-(4-sec-butylphenyl)-2-(6-methylpyridin-3-yl)quinazolin-4(3H)-one] | Active
O=c1c2ccccc2nc(-c2ccc(Br)nc2)n1-c1ccc(Cl)cc1 [Example 41, 2-(6-bromopyridin-3-yl)-3-(4-chlorophenyl)quinazolin-4(3H)-one] | Active
CCC(C)c1ccc(-n2c(-c3ccc(F)nc3)nc3ccccc3c2=O)cc1 (stereo not drawn) [Example 51, 3-(4-sec-butylphenyl)-2-(6-fluoropyridin-3-yl)quinazolin-4(3H)-one] | Active
Cn1ccc2cc(-c3nc4ccccc4c(=O)n3-c3ccc(Cl)cc3)ccc21 [Example 83, 3-(4-chlorophenyl)-2-(1-methyl-1H-indol-5-yl)quinazolin-4(3H)-one] | Active
O=c1c2ccccc2nc(-c2ccc(Cl)nc2)n1-c1ccc(C2CC2)cc1 [Example 70, 2-(6-chloropyridin-3-yl)-3-(4-cyclopropylphenyl)quinazolin-4(3H)-one] | Active
CCC(C)c1ccc(-n2c(-c3ccc(C(F)(F)F)nc3)nc3ccccc3c2=O)cc1 (stereo not drawn) [Example 54, 3-(4-sec-butylphenyl)-2-(6-(trifluoromethyl)pyridin-3-yl)quinazolin-4(3H)-one] | Active
CCC(C)c1ccc(-n2c(-c3ccc(Cl)nc3)nc3ccccc3c2=O)cc1 (stereo not drawn) [Example 39, 3-(4-sec-butylphenyl)-2-(6-chloropyridin-3-yl)quinazolin-4(3H)-one] | Active
